Measurements: patent publication US9359339B2, “Glucagon receptor antagonist compounds, compositions containing such compounds and methods of use” (Merck Sharp & Dohme Corp., priority 2009, dated 2016)

Biological target: human glucagon receptor (Homo sapiens (Human), UniProt P47871)
Test: Glucagon Receptor Binding Assay (125I-glucagon SPA, CHO cell membranes)
Conditions: inhibition of 125I-Glucagon binding to membranes of CHO cells expressing cloned human glucagon receptor; more active isomer
Experimental: Glucagon Receptor Binding Assay
A stable CHO (Chinese hamster ovary) cell line expressing cloned human glucagon receptor was maintained as described (Chicchi, et. al. J Biol Chem 272, 7765-9 (1997); Cascieri, et. al. J Biol Chem 274, 8694-7 (1999)). To determine antagonistic binding affinity of compounds, 0.001-0.003 mg of cell membranes from these cells were pre-incubated with 0.100 mg WGA-coated PVT SPA beads (Amersham) for 20 minutes at room temperature in 25 μL of a buffer containing 50 mM Tris-HCl (pH 7.5), 5 mM MgCl2, 2 mM EDTA, 0.1% BSA and 3% glycerol in Costar 384 well plates with clear bottoms (#3706). Next, 25 μL of ^125I-Glucagon (New England Nuclear, MA) (1×10^−14 mol per well) and either 1 μL solutions of test compounds or 0.001 mM unlabeled glucagon or DMSO were added and mixed. After 4-12 hours incubation at room temperature, the radioactivity bound to the cell membranes was determined in a radioactive emission detection counter (Wallac-Microbeta). Data were analyzed using the Data Analyzer software program of Merck & Co., Inc. The IC50 values were calculated using non-linear regression analysis assuming single-site competition.

Chain of human glucagon receptor (P47871 26-477): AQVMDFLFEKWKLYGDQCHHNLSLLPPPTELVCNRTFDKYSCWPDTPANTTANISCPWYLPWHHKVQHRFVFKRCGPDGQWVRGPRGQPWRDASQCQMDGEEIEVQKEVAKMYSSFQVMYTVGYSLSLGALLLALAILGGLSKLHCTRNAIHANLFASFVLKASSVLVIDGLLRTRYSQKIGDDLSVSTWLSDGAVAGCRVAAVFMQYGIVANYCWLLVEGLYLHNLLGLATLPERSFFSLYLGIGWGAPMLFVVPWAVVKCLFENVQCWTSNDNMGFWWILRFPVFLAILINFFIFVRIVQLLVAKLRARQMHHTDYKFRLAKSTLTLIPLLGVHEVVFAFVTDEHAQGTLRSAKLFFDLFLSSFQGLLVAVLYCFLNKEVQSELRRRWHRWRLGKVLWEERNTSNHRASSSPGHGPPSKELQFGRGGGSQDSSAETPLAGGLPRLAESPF

SMILES | IC50 [nM]
CCC[C@H](c1ccc(C(=O)NCCC(=O)O)cc1)C(c1ccc(Cl)cc1)c1csc2c(C#N)cc(Cl)cc12 (stereo partly drawn) [Example 1, N-(4-{(1S)-1-[(5-CHLORO-7-CYANO-1-BENZOTHIEN-3-YL)(4-CHLOROPHENYL)METHYL]BUTYL}BENZOYL)-β-ALANINE] | 6.2
CCCC[C@H](c1ccc(C(=O)NCCC(=O)O)cc1)C(c1ccc(Cl)cc1)c1csc2c(-c3ccnn3C)cc(F)cc12 (stereo partly drawn) [Example 2, N-[4-((1S)-1-{(4-CHLOROPHENYL)[5-FLUORO-7-(1-METHYL-1H-PYRAZOL-5-YL)-1-BENZOTHIEN-3-YL]METHYL}PENTYL)BENZOYL]-β-ALANINE] | 4.7
CCC[C@H](c1ccc(C(=O)Nc2nnn[nH]2)cc1)C(c1ccc(Cl)cc1)c1csc2c(Br)cc(C)cc12 (stereo partly drawn) [Example 3, 4-{(1S)-1-[(7-BROMO-5-METHYL-1-BENZOTHIEN-3-YL)(4-CHLOROPHENYL)METHYL]BUTYL}-N-1H-TETRAZOL-5-YLBENZAMIDE] | 2.3
CCC[C@H](c1ccc(C(=O)NCc2nn[nH]n2)cc1)C(c1ccc(Cl)cc1)c1csc2c(Br)cc(C)cc12 (stereo partly drawn) [Example 4, 4-{(1S)-1-[(7-BROMO-5-METHYL-1-BENZOTHIEN-3-YL)(4-CHLOROPHENYL)METHYL]BUTYL}-N-(2H-TETRAZOL-5-YLMETHYL)BENZAMIDE] | 2.5
CCC[C@H](c1ccc(C(=O)NCCC(=O)O)cc1)C(c1ccc(Cl)cc1)c1csc2c(C)cc(Cl)cc12 (stereo partly drawn) [Example 6, N-(4-{(1S)-1-[(5-CHLORO-7-METHYL-1-BENZOTHIEN-3-YL)(4-CHLOROPHENYL)METHYL]BUTYL}BENZOYL)-β-ALANINE] | 28
CCC[C@H](c1ccc(C(=O)NCCC(=O)O)cc1)C(c1ccc(Cl)cc1)c1c(C)sc2ccccc12 (stereo partly drawn) [Example 8, N-(4-{(1S)-1-[(2-METHYL-1-BENZOTHIEN-3-YL)(4-CHLOROPHENYL)METHYL]BUTYL}BENZOYL)-β-ALANINE] | 2.2
CCC[C@H](c1ccc(C(=O)NCCC(=O)O)cc1)C(c1ccc(Cl)cc1)c1csc2c(C#N)cc(F)cc12 (stereo partly drawn) [Example 13, N-(4-{(1S)-1-[(5-FLUORO-7-CYANO-1-BENZOTHIEN-3-YL)(4-CHLOROPHENYL)METHYL]BUTYL}BENZOYL)-β-ALANINE] | 1.1
CCC[C@H](c1ccc(C(=O)NCCC(=O)O)cc1)C(c1ccc(Cl)cc1)c1csc2c(C#N)cc(C)cc12 (stereo partly drawn) [Example 14, N-(4-{(1S)-1-[(5-METHYL-7-CYANO-1-BENZOTHIEN-3-YL)(4-CHLOROPHENYL)METHYL]BUTYL}BENZOYL)-β-ALANINE] | 1.3
CCC[C@H](c1ccc(C(=O)NCCC(=O)O)cc1)C(c1ccc(Cl)cc1)c1csc2c(C#N)cc(C(F)(F)F)cc12 (stereo partly drawn) [Example 15, N-(4-{(1S)-1-[(5-TRIFLUOROMETHYL-7-CYANO-1-BENZOTHIEN-3-YL)(4-CHLOROPHENYL)METHYL]BUTYL}BENZOYL)-β-ALANINE] | 1.7
CCC[C@H](c1ccc(C(=O)NCCC(=O)O)cc1)C(c1ccc(Cl)cc1)c1c(C)sc2c(C#N)cc(Cl)cc12 (stereo partly drawn) [Example 19, N-(4-{(1S)-1-[(2-METHYL-5-CHLORO-7-CYANO-1-BENZOTHIEN-3-YL)(4-CHLOROPHENYL)METHYL]BUTYL}BENZOYL)-β-ALANINE] | 7.8
CCC[C@H](c1ccc(C(=O)NCCC(=O)O)cc1)C(c1ccc(Cl)c(Cl)c1)c1csc2c(C#N)cc(Cl)cc12 (stereo partly drawn) [Example 21, N-(4-{(1S)-1-[(5-CHLORO-7-CYANO-1-BENZOTHIEN-3-YL)(3,4-DICHLOROPHENYL)METHYL]BUTYL}BENZOYL)-β-ALANINE] | 0.7
CCC[C@H](c1ccc(C(=O)NCCC(=O)O)cc1)C(c1ccc(OC(F)(F)F)cc1)c1csc2c(C#N)cc(C)cc12 (stereo partly drawn) [Example 23, N-(4-{(1S)-1-[(5-METHYL-7-CYANO-1-BENZOTHIEN-3-YL)(4-TRIFLUOROMETHOXYPHENYL)METHYL]BUTYL}BENZOYL)-β-ALANINE] | 0.2
CCC[C@H](c1ccc(C(=O)NCCC(=O)O)cc1)C(c1ccc(OC(F)(F)F)cc1)c1csc2c(C#N)cc(Cl)cc12 (stereo partly drawn) [Example 25, N-(4-{(1S)-1-[(5-CHLORO-7-CYANO-1-BENZOTHIEN-3-YL)(4-TRIFLUOROMETHOXYPHENYL)METHYL]BUTYL}BENZOYL)-β-ALANINE] | 0.1
N#Cc1cc(Cl)cc2c(C(c3ccc(Cl)cc3)[C@H](CCC(F)(F)F)c3ccc(C(=O)NCCC(=O)O)cc3)csc12 (stereo partly drawn) [Example 27, N-(4-{(1S)-1-[(5-CHLORO-7-CYANO-1-BENZOTHIEN-3-YL)(4-CHLOROPHENYL)METHYL]-4,4,4-TRIFLUOROBUTYL}BENZOYL)-β-ALANINE] | 0.2
CCCC[C@H](c1ccc(C(=O)NCCC(=O)O)cc1)C(c1ccc(Cl)cc1)c1csc2c(C#N)cc(Cl)cc12 (stereo partly drawn) [Example 29, N-(4-{(1S)-1-[(5-CHLORO-7-CYANO-1-BENZOTHIEN-3-YL)(4-CHLOROPHENYL)METHYL]PENTYL}BENZOYL)-β-ALANINE] | 0.4
CCCC[C@H](c1ccc(C(=O)NCCC(=O)O)cc1)C(c1ccc(Cl)cc1)c1csc2c(C#N)cc(Cl)cc12 (stereo partly drawn) [Example 32, N-(4-{(1S)-1-[(5-CHLORO-7-CYANO-1-BENZOTHIEN-3-YL)(4-CHLOROPHENYL)METHYL]-4-METHYLBUTYL}BENZOYL)-β-ALANINE] | 1
CCC[C@H](c1ccc(C(=O)NCC(F)(F)C(=O)O)cc1)C(c1ccc(Cl)cc1)c1csc2c(Br)cc(C)cc12 (stereo partly drawn) [Example 40, 3-[(4-{(1S)-1-[(5-METHYL-7-BROMO-1-BENZOTHIOPHEN-3-YL)(4-CHLOROPHENYL)METHYL]BUTYL}BENZOYL)AMINO]-2,2-DIFLUOROPROPANOIC ACID] | 11.8
CCC[C@H](c1ccc(C(=O)NCCS(=O)(=O)O)cc1)C(c1ccc(Cl)cc1)c1csc2c(Br)cc(C)cc12 (stereo partly drawn) [Example 43, 2-[(4-{(1S)-1-[(5-METHYL-7-BROMO-1-BENZOTHIOPHEN-3-YL)(4-CHLOROPHENYL)METHYL]BUTYL}BENZOYL)AMINO]ETHANE SULFONIC ACID] | 3.4
CCC[C@H](c1ccc(C(=O)NCCC(=O)O)cc1)C(c1ccc(Cl)cc1)c1sc2ccccc2c1C (stereo partly drawn) [Example 45, N-[4-((1S)-1-{(4-CHLOROPHENYL)[3-METHYL-1-BENZOTHIEN-2-YL]METHYL}BUTYL)BENZOYL]-β-ALANINE] | 1.8
